≈ marks a conversion by molar mass, not a printed value.
Key:
Pseudomonas aeruginosa [1] = test: Antimicrobial activity against Pseudomonas aeruginosa PS4 with PFGE phenotype 9B expressing beta-lactamase IMP-18 obtained from sputum of patient by agar dilution method; assay type: functional
Pseudomonas aeruginosa [2] = test: Antimicrobial activity against Pseudomonas aeruginosa PS22 with PFGE phenotype 3A obtained from urine of patient by agar dilution method; assay type: functional
Pseudomonas aeruginosa [3] = test: Antimicrobial activity against Pseudomonas aeruginosa PS33 with PFGE phenotype 9A obtained from blood of patient by agar dilution method; assay type: functional
Pseudomonas aeruginosa [4] = test: Antimicrobial activity against Pseudomonas aeruginosa PS10 with PFGE phenotype 1A expressing beta-lactamase KPC-2 obtained from blood of patient by agar dilution method; assay type: functional
Pseudomonas aeruginosa [5] = test: Antimicrobial activity against Pseudomonas aeruginosa PS2 with PFGE phenotype 10B obtained from urine of ICU patient by agar dilution method; assay type: functional
Pseudomonas aeruginosa [6] = test: Antimicrobial activity against Pseudomonas aeruginosa PS5 with PFGE phenotype 7A expressing beta-lactamase KPC-2 obtained from sputum of ICU patient by agar dilution method; assay type: functional
Pseudomonas aeruginosa [7] = test: Antimicrobial activity against Pseudomonas aeruginosa PS14 with PFGE phenotype 10C obtained from sputum of ICU patient by agar dilution method; assay type: functional
Pseudomonas aeruginosa [8] = test: Antimicrobial activity against Pseudomonas aeruginosa PS23 with PFGE phenotype 4A expressing beta-lactamase KPC-2 obtained from blood of patient by agar dilution method; assay type: functional
Pseudomonas aeruginosa [9] = test: Antimicrobial activity against Pseudomonas aeruginosa PS35 with PFGE phenotype 11A obtained from urine of patient by agar dilution method; assay type: functional
Pseudomonas aeruginosa [10] = test: Antimicrobial activity against Pseudomonas aeruginosa PS31 with PFGE phenotype 11B obtained from skin of patient by agar dilution method; assay type: functional
Pseudomonas aeruginosa [11] = test: Antimicrobial activity against Pseudomonas aeruginosa PS12 with PFGE phenotype 7B obtained from sputum of patient by agar dilution method; assay type: functional
Pseudomonas aeruginosa [12] = test: Antimicrobial activity against Pseudomonas aeruginosa PS25 with PFGE phenotype 1A obtained from sputum of patient by agar dilution method; assay type: functional
Pseudomonas aeruginosa [13] = test: Antimicrobial activity against Pseudomonas aeruginosa PS19A with PFGE phenotype 11C obtained from urine of patient by agar dilution method; assay type: functional
Pseudomonas aeruginosa [14] = test: Antimicrobial activity against Pseudomonas aeruginosa PS18A with PFGE phenotype 11D obtained from CSF of ICU patient by agar dilution method; assay type: functional
Pseudomonas aeruginosa [15] = test: Antimicrobial activity against Pseudomonas aeruginosa PS6A with PFGE phenotype 11A obtained from sputum of ICU patient by agar dilution method; assay type: functional
Pseudomonas aeruginosa [16] = test: Antimicrobial activity against Pseudomonas aeruginosa PS39 with PFGE phenotype 8 expressing beta-lactamase IMP-18 obtained from urine of patient by agar dilution method; assay type: functional
Pseudomonas aeruginosa [17] = test: Antimicrobial activity against Pseudomonas aeruginosa PS44 with PFGE phenotype 13 expressing beta-lactamase IMP-18 obtained from blood of patient by agar dilution method; assay type: functional
Pseudomonas aeruginosa [18] = test: Antimicrobial activity against Pseudomonas aeruginosa PS36 with PFGE phenotype 11B obtained from urine of patient by agar dilution method; assay type: functional
Pseudomonas aeruginosa [19] = test: Antimicrobial activity against Pseudomonas aeruginosa PS26 with PFGE phenotype 3A expressing beta-lactamase OXA-2 obtained from sputum of ICU patient by agar dilution method; assay type: functional
Pseudomonas aeruginosa [20] = test: Antimicrobial activity against Pseudomonas aeruginosa PS30 with PFGE phenotype 11D obtained from sputum of patient by agar dilution method; assay type: functional
Pseudomonas aeruginosa [21] = test: Antimicrobial activity against Pseudomonas aeruginosa PS9 with PFGE phenotype 3B obtained from sputum of patient by agar dilution method; assay type: functional
Pseudomonas aeruginosa [22] = test: Antimicrobial activity against Pseudomonas aeruginosa PS1 with PFGE phenotype 9C negative for blaIMP, blaVIM and blaKPC obtained from sputum of patient by agar dilution method
Pseudomonas aeruginosa [23] = test: Antimicrobial activity against Pseudomonas aeruginosa PS43 with PFGE phenotype 2 expressing beta-lactamase KPC-2, OXA-2 obtained from skin of ICU patient by agar dilution method; assay type: functional
Pseudomonas aeruginosa [24] = test: Antimicrobial activity against Pseudomonas aeruginosa PS37 with PFGE phenotype 11D obtained from sputum of patient by agar dilution method; assay type: functional
Pseudomonas aeruginosa [25] = test: Antimicrobial activity against Pseudomonas aeruginosa PS40 with PFGE phenotype 5 expressing beta-lactamase KPC-2, OXA-2 obtained from urine of patient by agar dilution method; assay type: functional
Pseudomonas aeruginosa [26] = test: Antimicrobial activity against Pseudomonas aeruginosa PS28 with PFGE phenotype 6 expressing beta-lactamase KPC-5 obtained from skin of patient by agar dilution method; assay type: functional
Pseudomonas aeruginosa [27] = test: Antimicrobial activity against OprD overproducing Pseudomonas aeruginosa PAO1 expressing mexA and oprD by agar dilution method; assay type: functional
Pseudomonas aeruginosa [28] = test: Antimicrobial activity against Pseudomonas aeruginosa PS11A with PFGE phenotype 7A obtained from sputum of ICU patient by agar dilution method; assay type: functional
Pseudomonas aeruginosa [29] = test: Antimicrobial activity against Pseudomonas aeruginosa PS29 with PFGE phenotype 11D obtained from sputum of patient by agar dilution method; assay type: functional
Pseudomonas aeruginosa [30] = test: Antimicrobial activity against Pseudomonas aeruginosa PS20A with PFGE phenotype 11D obtained from skin of patient by agar dilution method; assay type: functional
Pseudomonas aeruginosa [31] = test: Antimicrobial activity against Pseudomonas aeruginosa PS13 with PFGE phenotype 11E obtained from sputum of ICU patient by agar dilution method; assay type: functional
Pseudomonas aeruginosa [32] = test: Antimicrobial activity against Pseudomonas aeruginosa PS3 with PFGE phenotype 12 obtained from sputum of ICU patient by agar dilution method; assay type: functional
Pseudomonas aeruginosa [33] = test: Antimicrobial activity against Pseudomonas aeruginosa PS7A with PFGE phenotype 11D obtained from urine of ICU patient by agar dilution method; assay type: functional
Pseudomonas aeruginosa [34] = test: Antimicrobial activity against Pseudomonas aeruginosa PS15A with PFGE phenotype 10A obtained from blood of patient by agar dilution method; assay type: functional
Pseudomonas aeruginosa [35] = test: Antimicrobial activity against Pseudomonas aeruginosa PS17B with PFGE phenotype 11D expressing beta-lactamase KPC-2 obtained from blood of ICU patient by agar dilution method; assay type: functional
Pseudomonas aeruginosa [36] = test: Antimicrobial activity against Pseudomonas aeruginosa PS21 with PFGE phenotype 11F obtained from skin of patient by agar dilution method; assay type: functional
Pseudomonas aeruginosa [37] = test: Antimicrobial activity against Pseudomonas aeruginosa PS41 with PFGE phenotype 11D obtained from urine of patient by agar dilution method; assay type: functional
Pseudomonas aeruginosa [38] = test: Antimicrobial activity against Pseudomonas aeruginosa PS34 with PFGE phenotype 4A obtained from blood of ICU patient by agar dilution method; assay type: functional

| SMILES | MIC (Pseudomonas aeruginosa [1]) [µg/mL] | MIC (Pseudomonas aeruginosa [2]) [µg/mL] | MIC (Pseudomonas aeruginosa [3]) [µg/mL] | MIC (Pseudomonas aeruginosa [4]) [µg/mL] | MIC (Pseudomonas aeruginosa [5]) [µg/mL] | MIC (Pseudomonas aeruginosa [6]) [µg/mL] | MIC (Pseudomonas aeruginosa [7]) [µg/mL] | MIC (Pseudomonas aeruginosa [8]) [µg/mL] | MIC (Pseudomonas aeruginosa [9]) [µg/mL] | MIC (Pseudomonas aeruginosa [10]) [µg/mL] | MIC (Pseudomonas aeruginosa [11]) [µg/mL] | MIC (Pseudomonas aeruginosa [12]) [µg/mL] | MIC (Pseudomonas aeruginosa [17]) [µg/mL] | MIC (Pseudomonas aeruginosa [19]) [µg/mL] | MIC (Pseudomonas aeruginosa [21]) [µg/mL] | MIC (Pseudomonas aeruginosa [22]) [µg/mL] | MIC (Pseudomonas aeruginosa [23]) [µg/mL] | MIC (Pseudomonas aeruginosa [27]) [µg/mL] | MIC (Pseudomonas aeruginosa [32]) [µg/mL] | MIC (Pseudomonas aeruginosa [34]) [µg/mL] | also measured |
| --- | --- | --- | --- | --- | --- | --- | --- | --- | --- | --- | --- | --- | --- | --- | --- | --- | --- | --- | --- | --- | --- |
| CC(C)(O/N=C(\C(=O)N[C@@H]1C(=O)N2C(C(=O)[O-])=C(C[n+]3ccccc3)CS[C@H]12)c1csc(N)n1)C(=O)O [CEFTAZIDIME] | > 128 | 16 (≈ 29.3 µM) | > 128 | 64 (≈ 117 µM) | 128 (≈ 234 µM) | 64 (≈ 117 µM) | 64 (≈ 117 µM) | 128 (≈ 234 µM) | 64 (≈ 117 µM) | 64 (≈ 117 µM) | 64 (≈ 117 µM) | 64 (≈ 117 µM) | > 128 | 8 (≈ 14.6 µM) | 8 (≈ 14.6 µM) | 2 (≈ 3.66 µM) | 16 (≈ 29.3 µM) | 1 (≈ 1.83 µM) | 4 (≈ 7.32 µM) | 128 (≈ 234 µM) | MIC (Pseudomonas aeruginosa [13]): 64 µg/mL (≈ 117 µM); MIC (Pseudomonas aeruginosa [14]): 32 µg/mL (≈ 58.5 µM); MIC (Pseudomonas aeruginosa [15]): 32 µg/mL (≈ 58.5 µM); MIC (Pseudomonas aeruginosa [16]): > 128 µg/mL; MIC (Pseudomonas aeruginosa [18]): 64 µg/mL (≈ 117 µM); MIC (Pseudomonas aeruginosa [20]): 64 µg/mL (≈ 117 µM); MIC (Pseudomonas aeruginosa [24]): 64 µg/mL (≈ 117 µM); MIC (Pseudomonas aeruginosa [25]): 32 µg/mL (≈ 58.5 µM); MIC (Pseudomonas aeruginosa [26]): 128 µg/mL (≈ 234 µM); MIC (Pseudomonas aeruginosa [28]): 32 µg/mL (≈ 58.5 µM); MIC (Pseudomonas aeruginosa [29]): 64 µg/mL (≈ 117 µM); MIC (Pseudomonas aeruginosa [30]): 64 µg/mL (≈ 117 µM); MIC (Pseudomonas aeruginosa [31]): 64 µg/mL (≈ 117 µM); MIC (Pseudomonas aeruginosa [33]): 64 µg/mL (≈ 117 µM); MIC (Pseudomonas aeruginosa [35]): 64 µg/mL (≈ 117 µM); MIC (Pseudomonas aeruginosa [36]): 64 µg/mL (≈ 117 µM); MIC (Pseudomonas aeruginosa [37]): 64 µg/mL (≈ 117 µM); MIC (Pseudomonas aeruginosa [38]): 64 µg/mL (≈ 117 µM) |
| C[C@@H](O)[C@H]1C(=O)N2C(C(=O)O)=C(SCCNC=N)C[C@H]12 [IMIPENEM ANHYDROUS] | > 64 | 8 (≈ 26.7 µM) | 64 (≈ 214 µM) | > 64 | 64 (≈ 214 µM) | > 64 | 64 (≈ 214 µM) | > 64 | > 64 | > 64 | > 64 | > 64 | 64 (≈ 214 µM) | 8 (≈ 26.7 µM) | 8 (≈ 26.7 µM) | 16 (≈ 53.4 µM) | 16 (≈ 53.4 µM) | 1 (≈ 3.34 µM) | 16 (≈ 53.4 µM) | 32 (≈ 107 µM) | MIC (Pseudomonas aeruginosa [13]): > 64 µg/mL; MIC (Pseudomonas aeruginosa [14]): > 64 µg/mL; MIC (Pseudomonas aeruginosa [15]): > 64 µg/mL; MIC (Pseudomonas aeruginosa [16]): > 64 µg/mL; MIC (Pseudomonas aeruginosa [18]): > 64 µg/mL; MIC (Pseudomonas aeruginosa [20]): > 64 µg/mL; MIC (Pseudomonas aeruginosa [24]): > 64 µg/mL; MIC (Pseudomonas aeruginosa [25]): > 64 µg/mL; MIC (Pseudomonas aeruginosa [26]): > 64 µg/mL; MIC (Pseudomonas aeruginosa [28]): > 64 µg/mL; MIC (Pseudomonas aeruginosa [29]): > 64 µg/mL; MIC (Pseudomonas aeruginosa [30]): > 64 µg/mL; MIC (Pseudomonas aeruginosa [31]): > 64 µg/mL; MIC (Pseudomonas aeruginosa [33]): > 64 µg/mL; MIC (Pseudomonas aeruginosa [35]): > 64 µg/mL; MIC (Pseudomonas aeruginosa [36]): > 64 µg/mL; MIC (Pseudomonas aeruginosa [37]): > 64 µg/mL; MIC (Pseudomonas aeruginosa [38]): > 64 µg/mL |
| C[C@@H](O)[C@H]1C(=O)N2C(C(=O)O)=C(S[C@@H]3CN[C@H](C(=O)N(C)C)C3)[C@H](C)[C@H]12 [MEROPENEM] |  | 16 (≈ 41.7 µM) | 32 (≈ 83.4 µM) |  | 16 (≈ 41.7 µM) |  | 16 (≈ 41.7 µM) |  |  |  | 32 (≈ 83.4 µM) |  | 32 (≈ 83.4 µM) | 16 (≈ 41.7 µM) | 16 (≈ 41.7 µM) | 8 (≈ 20.9 µM) | 32 (≈ 83.4 µM) | 0.5 (≈ 1.3 µM) | 8 (≈ 20.9 µM) | 16 (≈ 41.7 µM) |  |

— ChEMBL document CHEMBL1629674, “Surveillance of carbapenem-resistant Pseudomonas aeruginosa isolates from Puerto Rican Medical Center Hospitals: dissemination of KPC and IMP-18 beta-lactamases” (2009)
